Molecular target: IgE-Tb / sFcεRIα-Y131A-AF488 (Homo sapiens, UniProt P01854, N146Q/N252Q)
Assay: IgE-Tb / sFcεRIα-Y131A-AF488 FRET assay (protocol for examples 234 to 501)
Assay type: binding
Settings: examples 234 to 501: compound with IgE-Tb 30 minutes before sFcεRIα-Y131A-AF488, incubated 18 hours at room temperature; read-out: Y131A FRET IC50 range
How it was run: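 Read-out is the 520/490 nm emission ratio (337 nm excitation) after 18 h at room temperature, background subtracted, fitted four-parameter for IC50. Final reagents: 5 nM IgE-Tb, preincubated 30 min with compound (top typically 10 μM, 2% DMSO, 3-fold 10-point), plus 25 nM sFcεRIα-Y131A-AF488.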

Sequence of IgE-Tb / sFcεRIα-Y131A-AF488 (P01854 whole entry N146Q/N252Q): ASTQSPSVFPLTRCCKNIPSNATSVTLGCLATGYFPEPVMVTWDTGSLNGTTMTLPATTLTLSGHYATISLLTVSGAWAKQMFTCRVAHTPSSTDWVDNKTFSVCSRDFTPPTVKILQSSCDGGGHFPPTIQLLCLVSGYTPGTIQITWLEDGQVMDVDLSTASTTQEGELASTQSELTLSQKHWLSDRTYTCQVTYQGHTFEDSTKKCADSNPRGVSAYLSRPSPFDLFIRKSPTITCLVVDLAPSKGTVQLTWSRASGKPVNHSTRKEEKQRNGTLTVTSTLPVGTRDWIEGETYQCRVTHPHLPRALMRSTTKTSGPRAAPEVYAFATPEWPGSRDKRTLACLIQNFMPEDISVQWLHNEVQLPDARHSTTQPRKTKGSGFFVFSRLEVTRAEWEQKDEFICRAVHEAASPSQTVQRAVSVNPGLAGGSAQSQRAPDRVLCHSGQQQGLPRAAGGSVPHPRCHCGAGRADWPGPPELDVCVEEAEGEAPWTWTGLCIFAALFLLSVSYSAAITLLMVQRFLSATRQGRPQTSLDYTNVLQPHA

## Cn1nc(OC(F)F)cc1Nc1nncn1[C@H]1CCc2sc(NC(=O)[C@H]3C[C@@H]3F)c(C(=O)NC[C@H]3C[C@@H](F)C3)c2C1 (single isomer, unassigned) [Example 377]
  IC50: < 1000 nM

## Cn1nc(OC(F)F)cc1Nc1nncn1[C@H]1CCc2sc(NC(=O)[C@H]3C[C@@H]3F)c(C(=O)NC[C@H]3C[C@H](F)C3)c2C1 (single isomer, unassigned) [Example 378]
  IC50: < 1000 nM

## Cn1nc(OC(F)F)cc1Nc1nncn1[C@H]1CCc2sc(NC(=O)[C@H]3C[C@@H]3F)c(C(=O)N[C@H]3C[C@H](F)C3)c2C1 (single isomer, unassigned) [Example 379]
  IC50: < 1000 nM

## Cn1nc(C(F)F)cc1Nc1nncn1[C@H]1CCc2sc(NC(=O)C3CC3)c(C(=O)NC[C@H]3CC3(F)F)c2C1 (single isomer, unassigned) [Example 382]
  IC50: < 1000 nM

## Cn1nc(C(F)F)cc1Nc1nncn1[C@H]1CCc2sc(NC(=O)C3CC3)c(C(=O)NC[C@@H]3CC3(F)F)c2C1 (single isomer, unassigned) [Example 383]
  IC50: < 1000 nM

## Cn1nc(C(F)F)cc1Nc1nncn1[C@H]1CCc2sc(NC(=O)C3CC3)c(C(=O)NC[C@@H]3CC34CC4)c2C1 (single isomer, unassigned) [Example 385]
  IC50: < 1000 nM

## Cn1nc(C(F)F)cc1Nc1nncn1[C@H]1CCc2sc(NC(=O)C3CC3)c(C(=O)NC[C@H]3CC34CC4)c2C1 (single isomer, unassigned) [Example 386]
  IC50: < 1000 nM

## Cn1nc(C(F)(F)F)cc1Nc1nncn1[C@H]1CCc2sc(NC(=O)[C@H]3C[C@H]3F)c(C(=O)N[C@@H]3CC34CC4)c2C1 (single isomer, unassigned) [Example 393]
  IC50: < 1000 nM

## Cn1nc(C(F)(F)F)cc1Nc1nncn1[C@H]1CCc2sc(NC(=O)[C@H]3C[C@H]3F)c(C(=O)N[C@H]3CC34CC4)c2C1 (single isomer, unassigned) [Example 394]
  IC50: < 1000 nM

## Cn1nc(C(F)(F)F)cc1Nc1nncn1[C@H]1CCc2sc(NC(=O)[C@H]3C[C@H]3F)c(C(=O)NC[C@H]3CC3(F)F)c2C1 (single isomer, unassigned) [Example 397]
  IC50: < 1000 nM

## Cn1nc(C(F)(F)F)cc1Nc1nncn1[C@H]1CCc2sc(NC(=O)[C@H]3C[C@H]3F)c(C(=O)NC[C@@H]3CC3(F)F)c2C1 (single isomer, unassigned) [Example 398]
  IC50: < 1000 nM

## Cn1nc(C(F)F)cc1Nc1nncn1[C@H]1CCc2sc(NC(=O)[C@H]3CC34CC4)c(C(=O)NC[C@@H]3CC3(F)F)c2C1 (single isomer, unassigned) [Example 409]
  IC50: < 1000 nM

## Cn1nc(C(F)F)cc1Nc1nncn1[C@H]1CCc2sc(NC(=O)[C@H]3CC34CC4)c(C(=O)NC[C@H]3CC3(F)F)c2C1 (single isomer, unassigned) [Example 410]
  IC50: < 1000 nM

## CCOC(=O)c1c(NC(=O)[C@H]2CC23CC3)sc2c1C[C@@H](n1cnnc1Nc1cc(C(F)F)nn1C)CC2 (single isomer, unassigned) [Example 417]
  IC50: < 1000 nM

## C[C@H]1c2c(sc(NC(=O)C3CC3)c2C(=O)NCC2CC2)CC[C@@H]1n1cnnc1Nc1cc(C(F)(F)F)nn1C (single isomer, unassigned) [Example 422, (4R*,5R*)-2-(cyclopropanecarbonylamino)-N-(cyclopropylmethyl)-4-methyl-5-[3-[[2-methyl-5-(trifluoromethyl)pyrazol-3-yl]amino]-1,2,4-triazol-4-yl]-4,5,6,7-tetrahydrobenzothiophene-3-carboxamide]
  IC50: < 1000 nM

## Cn1nc(OC(F)F)cc1Nc1nncn1[C@H]1CCc2sc(NC(=O)C3CC3)c(C(=O)NC[C@H]3CC3(F)F)c2C1 (single isomer, unassigned) [Example 459]
  IC50: < 1000 nM

## Cn1nc(OC(F)F)cc1Nc1nncn1[C@H]1CCc2sc(NC(=O)C3CC3)c(C(=O)NC[C@@H]3CC3(F)F)c2C1 (single isomer, unassigned) [Example 460]
  IC50: < 1000 nM

## COc1cc(Nc2nncn2[C@H]2CCc3sc(NC(=O)[C@H]4C[C@@H]4C)c(C(=O)NC[C@H]4CC4(F)F)c3C2)n(C)n1 (single isomer, unassigned) [Example 463]
  IC50: < 1000 nM

## COc1cc(Nc2nncn2[C@H]2CCc3sc(NC(=O)[C@H]4C[C@@H]4C)c(C(=O)NC[C@@H]4CC4(F)F)c3C2)n(C)n1 (single isomer, unassigned) [Example 464]
  IC50: < 1000 nM

## Cn1nc(C(F)F)cc1Nc1nncn1[C@H]1CCc2sc(NC(=O)[C@H]3C[C@H](F)C3)c(C(=O)N[C@@H]3CC34CC4)c2C1 (single isomer, unassigned) [Example 469]
  IC50: < 1000 nM

## Cn1nc(C(F)F)cc1Nc1nncn1[C@H]1CCc2sc(NC(=O)[C@H]3C[C@H](F)C3)c(C(=O)N[C@H]3CC34CC4)c2C1 (single isomer, unassigned) [Example 470]
  IC50: < 1000 nM

## Cn1nc(C(F)F)cc1Nc1nncn1[C@H]1CCc2sc(NC(=O)[C@H]3C[C@H](F)C3)c(C(=O)NC[C@H]3C[C@H](F)C3)c2C1 (single isomer, unassigned) [Example 474]
  IC50: < 1000 nM

## Cn1nc(C(F)F)cc1Nc1nncn1[C@H]1CCc2sc(NC(=O)[C@H]3C[C@@H](F)C3)c(C(=O)NC[C@H]3C[C@H](F)C3)c2C1 (single isomer, unassigned) [Example 475]
  IC50: < 1000 nM

## Cn1nc(C(F)F)cc1Nc1nncn1[C@H]1CCc2sc(NC(=O)[C@H]3C[C@H](F)C3)c(C(=O)N[C@H]3C[C@H](F)C3)c2C1 (single isomer, unassigned) [Example 476]
  IC50: < 1000 nM

## Cn1nc(C(F)F)cc1Nc1nncn1[C@H]1CCc2sc(NC(=O)[C@H]3C[C@@H](F)C3)c(C(=O)N[C@H]3C[C@H](F)C3)c2C1 (single isomer, unassigned) [Example 477]
  IC50: < 1000 nM

## Cn1nc(OC(F)F)cc1Nc1nncn1[C@H]1CCc2sc(NC(=O)[C@H]3C[C@H](F)C3)c(C(=O)N[C@@H]3CC34CC4)c2C1 (single isomer, unassigned) [Example 484]
  IC50: < 1000 nM

## Cn1nc(OC(F)F)cc1Nc1nncn1[C@H]1CCc2sc(NC(=O)[C@H]3C[C@H](F)C3)c(C(=O)N[C@H]3CC34CC4)c2C1 (single isomer, unassigned) [Example 485]
  IC50: < 1000 nM

## Cn1nc(OC(F)F)cc1Nc1nncn1[C@H]1CCc2sc(NC(=O)[C@H]3C[C@H](F)C3)c(C(=O)NC[C@H]3CC3(F)F)c2C1 (single isomer, unassigned) [Example 488]
  IC50: < 1000 nM

## Cn1nc(C(F)F)cc1Nc1nncn1[C@H]1CCc2sc(NC(=O)C3CC3)c(C(=O)N[C@H]3CC34CC4)c2C1 (single isomer, unassigned) [Example 495]
  IC50: < 1000 nM

## Cn1nc(C(F)(F)F)cc1Nc1nncn1C1COc2sc(NC(=O)C3CC3)c(C(=O)NCC3CC3)c2C1 (single isomer, unassigned) [Example 501, (3R*)-6-(cyclopropanecarbonylamino)-N-(cyclopropylmethyl)-3-[3-[[2-methyl-5-(trifluoromethyl)pyrazol-3-yl]amino]-1,2,4-triazol-4-yl]-3,4-dihydro-2H-thieno[2,3-b]pyran-5-carboxamide (* or S)]
  IC50: < 1000 nM

## Cc1ccc(N2CC[C@H](Nc3nncn3[C@H]3CCc4sc(NC(=O)C5CC5)c(C(=O)NCC5CC5)c4C3)C2)nn1 [Example 240, (5S)-2-cyclopropaneamido-N-(cyclopropylmethyl)-5-(3-{[(35)-1-(6-methylpyridazin-3-yl)pyrrolidin-3-yl]amino}-4H-1,2,4-triazol-4-yl)-4,5,6,7-tetrahydro-1-benzothiophene-3-carboxamide]
  IC50: < 1000 nM

## O=C(NCC1CC1)c1c(NC(=O)C2CC2)sc2c1C[C@@H](n1cnnc1N[C@H]1CCN(c3cnccn3)C1)CC2 [Example 241, (5S)-2-(cyclopropanecarbonylamino)-N-(cyclopropylmethyl)-5-[3-[[(3S)-1-pyrazin-2-ylpyrrolidin-3-yl]amino]-1,2,4-triazol-4-yl]-4,5,6,7-tetrahydrobenzothiophene-3-carboxamide]
  IC50: < 1000 nM

## O=C1NCc2c(Nc3nncn3[C@H]3CCc4sc(NC(=O)C5CC5)c(C(=O)NCC5CC5)c4C3)cccc21 [Example 244, (5S)-2-cyclopropaneamido-N-(cyclopropylmethyl)-5-{3-[(1-oxo-2,3-dihydro-1H-isoindol-4-yl)amino]-4H-1,2,4-triazol-4-yl}-4,5,6,7-tetrahydro-1-benzothiophene-3-carboxamide]
  IC50: < 1000 nM

## O=C(NCC1CC1)c1c(NC(=O)C2CC2)sc2c1C[C@@H](n1cnnc1N[C@H]1CCN(c3ccc(F)nn3)C1)CC2 [Example 245, (5S)-2-(cyclopropanecarbonylamino)-N-(cyclopropylmethyl)-5-[3-[[(3S)-1-(6-fluoropyridazin-3-yl)pyrrolidin-3-yl]amino]-1,2,4-triazol-4-yl]-4,5,6,7-tetrahydrobenzothiophene-3-carboxamide]
  IC50: < 1000 nM

## O=C(NCC1CC1)c1c(NC(=O)C2CC2)sc2c1C[C@@H](n1cnnc1N[C@H]1CCN(c3ncccn3)C1)CC2 [Example 246]
  IC50: < 1000 nM

## COCCOC(=O)c1ncn([C@H]2CCc3sc(NC(=O)C4CC4)c(C(=O)NCC4CC4)c3C2)c1N [Example 247, 2-methoxyethyl 5-amino-1-[(5S)-2-(cyclopropanecarbonylamino)-3-(cyclopropylmethylcarbamoyl)-4,5,6,7-tetrahydro-1-benzothiophen-5-yl]imidazole-4-carboxylate]
  IC50: < 1000 nM

## Nc1c(C(=O)OCCN2CCOCC2)ncn1[C@H]1CCc2sc(NC(=O)C3CC3)c(C(=O)NCC3CC3)c2C1 [Example 248, 2-morpholin-4-ylethyl 5-amino-1-[(5S)-2-(cyclopropanecarbonylamino)-3-(cyclopropylmethylcarbamoyl)-4,5,6,7-tetrahydro-1-benzothiophen-5-yl]imidazole-4-carboxylate]
  IC50: < 1000 nM

Reference: patent US12018021B2 (UCB Biopharma SRL, priority 2018, dated 2024)
